Values after ≈ are worked out from the molar mass of the structure shown.
Columns and labels:
Assay type in all cases: cell-based
[1] = test system: Staphylococcus aureus, MRSA (ATCC 33591); experiment: Antibacterial MIC assay (microbroth dilution, CLSI); details: 35° C., 16-20 hours; for MIC: Staphylococcus aureus
Summary of the method: (§1)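 Microbroth dilution per CLSI M07-A10/M100-S25 in cation-adjusted Mueller-Hinton broth, with 3% lysed horse blood added for S. pneumoniae. Inoculum from a 0.5 McFarland direct colony suspension, diluted to 5×10^5 CFU/mL in the well. Compounds were 2-fold serially diluted; MIC read against a growth control.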

[2] = test system: Streptococcus pneumoniae (ATCC 49619); experiment: as above; details: 35° C., 16-20 hours; for MIC Streptococcus pneumoniae (ATCC 49619): 3% lysed horse blood; for MIC: Streptococcus pneumoniae, ATCC49619, 3% lysed horse blood
Summary of the method: as §1

[3] = test system: Wolbachia pipientis in C6/36 cell line; experiment: Anti-Wolbachia high-content assay; details: C6/36 (wAlbB) cells, 7 days at 26° C., 50% reduction of Wolbachia
Excerpt: C6/36 cells (ECACC #89051705, derived from Aedes albopictus larvae) were infected with Wolbachia pipientis derived from the supernatant of cultured A. albopictus Aa23 cells to create a stably Wolbachia-infected cell line C6/36 (wAlbB). This cell line was subpassaged 6-8 days prior to plating out at a density of 2000 viable cells per well in a 384-well CellCarrier plate suspended in Liebovitz media supplemented with 20% fetal bovine serum, 2% tryptose phosphate broth and 1% non-essential amino acids. Compounds were dissolved and diluted in DMSO, and compound solution was added to each well to provide a final DMSO concentration <1% and a total volume of 100 μL per well. Following 7 days of sterile incubation at 26° C., staining media containing SYTO 11 DNA dye was added to each well. After 15 minutes, all media was removed from each well and fresh media (no stain) was added. Imaging of each well was accomplished using a Perkin Elmer Operetta high-content imaging system. Five fields per well were imaged using a confocal 60× objective with the Fluorescein filter (excitation filter: 460-490 nm; emission filter: 500-550 nm). Images were analyzed using the Perkin Elmer Harmony software to score each intact cell on the basis of texture complexity of the cytoplasm. Full details can be found in: […]. Biomol. Screening, 2015, 20, […]. Compound sample wells were analyzed and normalized (along with the positive controls) against the vehicle (untreated) control to give a percentage reduction of Wolbachia-infected cells. Using the cell number analysis, compounds with a host cell number amounting to less than 50% of the vehicle control were classified as toxic and retested at a reduced compound concentration. Dose-response curves were generated with percentage reduction of Wolbachia-infected cells versus compound concentration, using 5-10 compound serial dilutions. Data were analyzed and compound EC50 is determined using a 4 parameter logistic nonlinear regression model.

SMILES	MIC Staphylococcus aureus, MRSA (ATCC 33591) [1]	MIC Streptococcus pneumoniae (ATCC 49619) [2]	EC50 [3] [nM]	MIC [1] [µg/mL]	MIC [2] [µg/mL]	EC50 ([3]; Wolbachia pipientis) [nM]
CNC(=O)CC[C@]1(C)C[C@@H](OC(=O)COc2ccc3c(c2F)B(O)OC3)[C@]2(C)[C@H](C)CC[C@]3(CCC(=O)[C@H]32)[C@@H](C)[C@@H]1O [Compound 3, (3aR,4R,5R,7R,8S,9R,9aS,12R)-8-hydroxy-4,7,9,12-tetramethyl-7-(3-(methylamino)-3-oxopropyl)-3-oxodecahydro-4,9a-propanocyclopenta[8]annulen-5-yl2-((7-fluoro-1-hydroxy-1,3-dihydrobenzo[c][1,2]oxaborol-6-yl)oxy)acetate]	B (0.5-2 is B)	B (0.5-2 is B)	> 1000			
CCNC(=O)CC[C@]1(C)C[C@@H](OC(=O)COc2ccc3c(c2F)B(O)OC3)[C@]2(C)[C@H](C)CC[C@]3(CCC(=O)[C@H]32)[C@@H](C)[C@@H]1O [Compound 4, (3aR,4R,5R,7R,8S,9R,9aS,12R)-7-(3-(ethylamino)-3-oxopropyl)-8-hydroxy-4,7,9,12-tetramethyl-3-oxodecahydro-4,9a-propanocyclopenta[8]annulen-5-yl2-((7-fluoro-1-hydroxy-1,3-dihydrobenzo[c][1,2]oxaborol-6-yl)oxy)acetate]	B (0.5-2 is B)	B (0.5-2 is B)	283			
CCCCNC(=O)CC[C@]1(C)C[C@@H](OC(=O)COc2ccc3c(c2F)B(O)OC3)[C@]2(C)[C@H](C)CC[C@]3(CCC(=O)[C@H]32)[C@@H](C)[C@@H]1O [Compound 5, (3aR,4R,5R,7R,8S,9R,9aS,12R)-7-(3-(butylamino)-3-oxopropyl)-8-hydroxy-4,7,9,12-tetramethyl-3-oxodecahydro-4,9a-propanocyclopenta[8]annulen-5-yl2-((7-fluoro-1-hydroxy-1,3-dihydrobenzo[c][1,2]oxaborol-6-yl)oxy)acetate]	B (0.5-2 is B)	B (0.5-2 is B)	305			
COC(=O)/C=C/[C@]1(C)C[C@@H](OC(=O)COc2ccc3c(c2F)B(O)OC3)[C@]2(C)[C@H](C)CC[C@]3(CCC(=O)[C@H]32)[C@@H](C)[C@@H]1O [Compound 12, methyl (E)-3-((3aR,4R,5R,7S,8S,9R,9aS,12R)-5-(2-((7-fluoro-1-hydroxy-1,3-dihydrobenzo[c][1,2]oxaborol-6-yl)oxy)acetoxy)-8-hydroxy-4,7,9,12-tetramethyl-3-oxodecahydro-4,9a-propanocyclopenta[8]annulen-7-yl)acrylate]				< 0.25	< 0.25	81
C[C@@H]1CC[C@@]23CCC(=O)[C@H]2[C@]1(C)[C@H](OC(=O)COc1ccc2c(c1F)B(O)OC2)C[C@@](C)(/C=C/C(=O)O)[C@@H](O)C3 [Compound 13, (E)-3-((3aR,4R,5R,7S,8S,9aS,12R)-5-(2-((7-fluoro-1-hydroxy-1,3-dihydrobenzo[c][1,2]oxaborol-6-yl)oxy)acetoxy)-8-hydroxy-4,7,12-trimethyl-3-oxodecahydro-4,9a-propanocyclopenta[8]annulen-7-yl)acrylic acid]				4 to 32 (≈ 7.16 to 57.3 µM)	> 64	> 1000
CC[C@]1(C)C[C@@H](OC(=O)COc2cc(CN)c3c(c2)B(O)OC3)[C@]2(C)[C@H](C)CC[C@]3(CCC(=O)[C@H]32)[C@@H](C)[C@@H]1O [Compound 20, (3aR,4R,5R,7R,8S,9R,9aS,12R)-7-ethyl-8-hydroxy-4,7,9,12-tetramethyl-3-oxodecahydro-4,9a-propanocyclopenta[8]annulen-5-yl2-((4-(aminomethyl)-1-hydroxy-1,3-dihydrobenzo[c][1,2]oxaborol-6-yl)oxy)acetate]	A (MIC of ≤0.25 is A)	B (0.5-2 is B)	101			

The next lines start with results.

MIC Staphylococcus aureus, MRSA (ATCC 33591) [1]	MIC Streptococcus pneumoniae (ATCC 49619) [2]	EC50 [3] [nM]	SMILES	MIC [1] [µg/mL]	MIC [2] [µg/mL]	EC50 ([3]; Wolbachia pipientis) [nM]
B (0.5-2 is B)	B (0.5-2 is B)	392	C[C@@H]1CC[C@@]23CCC(=O)[C@H]2[C@]1(C)[C@H](OC(=O)COc1ccc2c(c1F)B(O)OC2)C[C@@](C)(CCC(=O)NC1CC1)[C@@H](O)[C@@H]3C [Compound 6, (3aR,4R,5R,7R,8S,9R,9aS,12R)-7-(3-(cyclopropylamino)-3-oxopropyl)-8-hydroxy-4,7,9,12-tetramethyl-3-oxodecahydro-4,9a-propanocyclopenta[8]annulen-5-yl2-((7-fluoro-1-hydroxy-1,3-dihydrobenzo[c][1,2]oxaborol-6-yl)oxy)acetate]			
D (≥64 is D)	D (≥64 is D)	> 1000	CNC[C@H](O)[C@]1(C)C[C@@H](OC(=O)COc2ccc3c(c2F)B(O)OC3)[C@]2(C)[C@H](C)CC[C@]3(CCC(=O)[C@H]32)[C@@H](C)[C@@H]1O [Compound 28, (3aR,4R,5R,7R,8S,9R,9aS,12R)-8-hydroxy-7-((R)-1-hydroxy-2-(methylamino)ethyl)-4,7,9,12-tetramethyl-3-oxodecahydro-4,9a-propanocyclopenta[8]annulen-5-yl2-((7-fluoro-1-hydroxy-1,3-dihydrobenzo[c][1,2]oxaborol-6-yl)oxy)acetate]			
C (4-32 is C)	D (≥64 is D)	> 1000	C[C@@H]1CC[C@@]23CCC(=O)[C@H]2[C@]1(C)[C@H](OC(=O)COc1ccc2c(c1F)B(O)OC2)C[C@@](C)(CNS(C)(=O)=O)[C@@H](OS(C)(=O)=O)[C@@H]3C [Compound 49, (3aR,4R,5R,7S,8S,9R,9aS,12R)-4,7,9,12-tetramethyl-7-(methylsulfonamidomethyl)-8-((methylsulfonyl)oxy)-3-oxodecahydro-4,9a-propanocyclopenta[8]annulen-5-yl2-((7-fluoro-1-hydroxy-1,3-dihydrobenzo[c][1,2]oxaborol-6-yl)oxy)acetate]			

Source: US20220273683A1, “BORON-CONTAINING SMALL MOLECULES” (Bill & Melinda Gates Foundation, priority 2016, published 2022)
